Experiment [1] addresses T1, IRE1α (Homo sapiens (Human), UniProt O75460). Nature of the experiment: In vitro luciferase assay (IRE1α Endoribonuclease Nanoluciferase Assay). Format: cell-based. The settings on record: 293T cells, XBP1 luciferase reporter. The method, boiled down:
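293T cells transiently transfected with a PGK-Luc2-P2A-XBP1u-nanoluciferase-PEST reporter for IRE1α-dependent XBP1 splicing, replated, and treated next day with ER stressors ± inhibitors. Lysates read sequentially for luminescence (OneGlo, then Stop and Glo), 1000 ms integration.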
For orientation: A reporter such as luciferase makes a cellular process visible.

The target in experiment [2] is T1, IRE1α. Nature of the experiment: In vitro FRET assay. Format: biochemical. The settings on record: XBP1 RNA probe. The method, boiled down:
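IRE1α (diluted to 2 nM) in citrate buffer pH 7.15 with serially diluted compound; FAM/Iowa Black-quenched XBP1 RNA probe (wildtype or non-spliceable mutant) added, fluorescence read […]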

Another experiment concerns the target IRE1 (Homo sapiens (Human), UniProt O75460). Nature of the experiment: qPCR assay of XBP1 splicing. The note with it: 293T cells, tunicamycin-induced ER stress. Format: cell-based. Here is the method: A quantitative PCR (qPCR) assay was performed to evaluate the ability of compound 17 and compound 23 to inhibit IRE1. To perform the qPCR assay, 50,000 293T cells were plated in each well of a flat-bottomed 96 well plates in duplicate. Test compounds or DMSO control were diluted to 4× their final concentration and 50 microliters were added to the cells. Compounds were incubated for 1 hour, then 50 microliters of 4× concentrated tunicamycin (8 ug/mL) were added to the cells to induce ER stress. ER stress was allowed to accumulate for 6 hours, after which the supernatant was removed and the cells were lysed with 150 uL of RLT lysis buffer (Qiagen). Samples were frozen at −80 degrees Celsius until RNA was isolated with the RNeasy 96 kit (Qiagen) according to the manufacturer's recommended protocol. The samples were used for subsequent RT-qPCR analysis of beta-actin, XBP1s, total XBP1 and SEC24D. Gene expression was evaluated by quantitative PCR for XBP1s, total XBP1 and SEC24D transcripts using the 2^(−ΔCT) method for calculating normalized gene expression. Gene expression levels were normalized to ACTB transcripts. XBP1 splicing is calculated as XBP1s expression divided by total XBP1 expression. […] See FIG. 3A (Compound 17) and FIG. 3B (Compound 23).
(In general: Quantitative PCR measures a nucleic acid by following its amplification.)

A further experiment deals with 293T cells. Nature of the experiment: Growth assay (cytotoxicity). Format: cell-based. The note with it: Homo sapiens, HEK-293T, 48 h, 2 day incubation, read-out: percentage growth at 5 uM. Here is the method: A growth assay is performed to evaluate the compounds disclosed in Table 1 for cytotoxicity. Briefly, 5,000,000 293T cells are resuspended in 18 mL of cDMEM for a final concentration of 277,777 cells/mL. 180 μL (50,000 cells) cDMEM was seeded per well in 96 well flat bottom plate, with some wells left unfilled. In a 96 well plate, […] cDMEM and 1 uL of any one of the compounds disclosed herein. 133.3 uL cDMEM is added to wells 1, 2, 3, 5, 6, 7, 9, 10, and 11 of row A. Wells are serially diluted with 66.7 uL (highest concentration on right, lowest on left) to the total concentrations shown below. 20 uL of each dilution is transferred in duplicate to the cells plated in the 96-well plate. The plate is then placed in a humidified chamber for a 2 day incubation, and then photographed (media is more yellow in wells with potent cell growth). Absorbance is then measured at […] (lower for more acidic media) and […] (higher for more acidic media).

In general, EC50 refers to the concentration giving half of the maximal effect. The low end stands for a more potent agent, the high end for a less potent agent. As usually defined, the IC50 is the concentration that gives 50% inhibition. A lower IC50 goes with inhibition by little substance.

T1 sequence (O75460 19-977): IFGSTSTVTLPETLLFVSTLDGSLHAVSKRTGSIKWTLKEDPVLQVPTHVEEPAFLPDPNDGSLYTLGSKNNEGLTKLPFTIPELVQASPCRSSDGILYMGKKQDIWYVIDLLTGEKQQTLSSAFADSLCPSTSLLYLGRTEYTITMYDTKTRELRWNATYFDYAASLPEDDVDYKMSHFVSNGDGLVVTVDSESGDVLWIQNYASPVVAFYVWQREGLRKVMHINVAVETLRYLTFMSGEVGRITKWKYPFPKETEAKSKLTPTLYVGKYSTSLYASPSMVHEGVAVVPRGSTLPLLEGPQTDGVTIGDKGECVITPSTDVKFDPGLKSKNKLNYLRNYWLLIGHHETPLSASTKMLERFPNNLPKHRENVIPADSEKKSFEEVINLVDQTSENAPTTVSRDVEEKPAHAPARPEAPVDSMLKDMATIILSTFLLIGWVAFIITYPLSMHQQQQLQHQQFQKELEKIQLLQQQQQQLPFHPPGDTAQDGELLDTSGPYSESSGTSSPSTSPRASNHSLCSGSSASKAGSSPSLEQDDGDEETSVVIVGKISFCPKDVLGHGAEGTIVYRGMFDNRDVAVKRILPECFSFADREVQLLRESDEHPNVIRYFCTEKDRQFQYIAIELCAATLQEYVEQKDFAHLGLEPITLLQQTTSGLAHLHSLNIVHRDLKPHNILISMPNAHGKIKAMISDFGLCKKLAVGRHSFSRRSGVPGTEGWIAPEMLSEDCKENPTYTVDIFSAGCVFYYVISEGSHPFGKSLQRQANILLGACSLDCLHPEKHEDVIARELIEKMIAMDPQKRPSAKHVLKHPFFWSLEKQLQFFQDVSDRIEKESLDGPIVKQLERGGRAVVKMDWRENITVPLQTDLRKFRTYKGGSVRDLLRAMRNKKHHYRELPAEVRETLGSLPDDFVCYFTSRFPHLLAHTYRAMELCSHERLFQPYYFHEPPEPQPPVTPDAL
Sequence of IRE1 (O75460 19-977): as above

The compound `Cc1nc(NS(=O)(=O)c2ccccc2Cl)ccc1/C=C/c1cnc(NC2CCC(N(C)C)CC2)nc1` (centres unmarked) [Compound 23, 2-chloro-N-(5-((E)-2-(2-(((1r,4r)-4-(dimethylamino)cyclohexyl)amino)pyrimidin-5-yl)vinyl)-6-methylpyridin-2-yl)benzenesulfonamide] came in with a concentration giving a half-maximal response (EC50) on IRE1α [1] of at most 5 nM. For the same compound, the half-inhibitory concentration (IC50) is at most 1 nM on IRE1α [2] and 4.39 nM at IRE1. In addition, the viability at 5 µM in the experiment with 293T cells is above 75%.
`COc1cc(NS(=O)(=O)c2ccccc2Cl)ccc1/C=C/c1cnc(NC2CCC(N)CC2)nc1` (centres unmarked) [Compound 14, N-(4-((E)-2-(2-(((1r,4r)-4-aminocyclohexyl)amino)pyrimidin-5-yl)vinyl)-3-methoxyphenyl)-2-chlorobenzenesulfonamide]: the half-maximal effective concentration (EC50) on IRE1α [1] was at most 5 nM. The compound further showed an IC50 at IRE1α [2] of at most 1 nM. Moreover, the viability at 5 µM with 293T cells is above 35%.
In the case of `COc1nc(NS(=O)(=O)c2ccc(F)c(F)c2Cl)ccc1/C=C/c1cnc(NC2CCC(N(C)C)CC2)nc1` (centres unmarked) [Compound 41, 2-chloro-N-(5-((E)-2-(2-(((1r,4r)-4-(dimethylamino)cyclohexyl)amino)pyrimidin-5-yl)vinyl)-6-methoxypyridin-2-yl)-3,4-difluorobenzenesulfonamide], the EC50 at IRE1α [1] was 5 to 50 nM. At IRE1α [2], this compound returned an IC50 of at most 1 nM. In addition, the viability at 5 µM in the experiment on 293T cells is above 75%.
Taken in the same sequence, the figures for `NC1CCC(Nc2ncc(CCc3ccc(NS(=O)(=O)c4ccccc4Cl)c(F)c3)cn2)CC1` (centres unmarked) [Compound 8, N-(4-(2-(2-(((1r,4r)-4-aminocyclohexyl)amino)pyrimidin-5-yl)ethyl)-2-fluorophenyl)-2-chlorobenzenesulfonamide] were 100 to 10000 nM, at most 1 nM and above 75%.
In turn, `COc1nc(NS(=O)(=O)c2ccccc2Cl)ccc1/C=C/c1cnc(NC2CCC(N(C)C)CC2)nc1` (centres unmarked) [Compound 17, 2-chloro-N-(5-((E)-2-(2-(((1r,4r)-4-(dimethylamino)cyclohexyl)amino)pyrimidin-5-yl)vinyl)-6-methoxypyridin-2-yl)benzenesulfonamide] registered an EC50 on IRE1α [1] of at most 5 nM. For the same compound, the half-inhibitory concentration (IC50) is at most 1 nM on IRE1α [2] and 4.95 nM at IRE1. The viability at 5 µM with 293T cells was above 75%.
Compound `Cc1nc(NS(=O)(=O)c2ccccc2Cl)c(F)cc1/C=C/c1cnc(NC2CCC(N(C)C)CC2)nc1` (centres unmarked) [Compound 25, 2-chloro-N-(5-((E)-2-(2-(((1r,4r)-4-(dimethylamino)cyclohexyl)amino)pyrimidin-5-yl)vinyl)-3-fluoro-6-methylpyridin-2-yl)benzenesulfonamide] gave an EC50 on IRE1α [1] of 5 to 50 nM. This compound came in with an IC50 on IRE1α [2] of at most 1 nM. Besides, in the experiment with 293T cells, the viability at 5 µM was above 75%.
The like results for `Cc1cc(NS(=O)(=O)c2ccccc2Cl)cc(F)c1/C=C/c1cnc(NC2CCC(N(C)C)CC2)nc1` (centres unmarked) [Compound 27, 2-chloro-N-(4-((E)-2-(2-(((1r,4r)-4-(dimethylamino)cyclohexyl)amino)pyrimidin-5-yl)vinyl)-3-fluoro-5-methylphenyl)benzenesulfonamide] were, in that order, at most 5 nM, at most 1 nM and above 50%.
The like results for `CCc1nc(NS(=O)(=O)c2ccccc2Cl)ccc1C=Cc1cnc(NC2CCC(N)CC2)nc1` (centres unmarked) [Compound 45, N-(5-(2-(2-((1r,4r)-4-aminocyclohexyl)amino)pyrimidin-5-yl)vinyl)-6-ethylpyridin-2-yl)-2-chlorobenzenesulfonamide] were, in that order, 5 to 50 nM, at most 1 nM and above 75%.
The like results for `CCc1nc(NS(=O)(=O)c2ccccc2Cl)ccc1/C=C/c1cnc(NC2CCC(NC)CC2)nc1` (centres unmarked) [Compound 47, 2-chloro-N-(6-ethyl-5-((E)-2-(2-(((1r,4r)-4-(methylamino)cyclohexyl)amino)pyrimidin-5-yl)vinyl)pyridin-2-yl)benzenesulfonamide] were, in that order, 5 to 50 nM, at most 1 nM and above 75%.

These data come from US11945784B2, “IRE1 small molecule inhibitors” (Cornell University, priority 2018, dated 2024).
